Reference: patent US20250241895A1 (GH RESEARCH IRELAND LIMITED, priority 2022, published 2025)

Assay: Pharmacokinetics of 5-MeO-DMT and bufotenine after inhalation
Type: in vivo, human
Conditions: LLOQ 25 pg/ml
Experimental: Blood samples were obtained at 1; 2; 4; 7; 10; 15; 20; 30; 45 min and 1; 1.5; 2; 3; 4 hours after administration.
PK parameters were generated by algebraic analysis of the concentration versus time plots for each individual. The analysis was carried out using the software Phoenix WinNonlin 6.3.

In the case of CN(C)CCc1c[nH]c2ccc(O)cc12 [bufotenine], the “samples with bufotenine concentration above LLOQ” value is reported as “Only in few samples” and the bufotenine blood concentration (from 15 min onwards after 5-MeO-DMT inhalation) is reported as < 25 pg/mL.
